According to ChEMBL document CHEMBL1138106, “The discovery of a potent and selective lethal factor inhibitor for adjunct therapy of anthrax infection” (Bioorg Med Chem Lett, 2006):

How the values were obtained:
[1] = target: 72 kDa type IV collagenase (Homo sapiens, UniProt P08253); assay: Inhibition of MMP2
[2] = Cmax in Guinea pig at 2 mg/kg, iv; assay type: ADME, organism-based, Cavia porcellus; parameters: dose 2 mg/kg, route intravenous; settings: in vivo
[3] = Bioavailability in Sprague-Dawley rat at 2 mg/ml, po; assay type: ADME, organism-based; settings: in vivo
[4] = Cmax in Sprague-Dawley rat at 1 mg/kg, iv; assay type: ADME, organism-based; parameters: dose 1 mg/kg, route intravenous; settings: in vivo
[5] = target: Matrix metalloproteinase-9 (Homo sapiens, UniProt P14780); assay: Inhibition of MMP9
Stromelysin-1 = Stromelysin-1 (Homo sapiens, UniProt P08254); assay: Inhibition of MMP3
[6] = Bioavailability in Guinea pig at 1 mg/ml, po; assay type: ADME, organism-based, Cavia porcellus; settings: in vivo
[7] = Half life in BALB/c mice at 10 mg/kg, iv; assay type: ADME, organism-based; parameters: dose 10 mg/kg, route intravenous; settings: mouse, in vivo
[8] = Bioavailability in Beagle dog […], po; assay type: ADME, organism-based, Canis lupus familiaris; settings: in vivo
Lethal factor [9] = target: T1, Lethal factor (Bacillus anthracis, UniProt P15917)
T1 sequence (P15917 whole entry): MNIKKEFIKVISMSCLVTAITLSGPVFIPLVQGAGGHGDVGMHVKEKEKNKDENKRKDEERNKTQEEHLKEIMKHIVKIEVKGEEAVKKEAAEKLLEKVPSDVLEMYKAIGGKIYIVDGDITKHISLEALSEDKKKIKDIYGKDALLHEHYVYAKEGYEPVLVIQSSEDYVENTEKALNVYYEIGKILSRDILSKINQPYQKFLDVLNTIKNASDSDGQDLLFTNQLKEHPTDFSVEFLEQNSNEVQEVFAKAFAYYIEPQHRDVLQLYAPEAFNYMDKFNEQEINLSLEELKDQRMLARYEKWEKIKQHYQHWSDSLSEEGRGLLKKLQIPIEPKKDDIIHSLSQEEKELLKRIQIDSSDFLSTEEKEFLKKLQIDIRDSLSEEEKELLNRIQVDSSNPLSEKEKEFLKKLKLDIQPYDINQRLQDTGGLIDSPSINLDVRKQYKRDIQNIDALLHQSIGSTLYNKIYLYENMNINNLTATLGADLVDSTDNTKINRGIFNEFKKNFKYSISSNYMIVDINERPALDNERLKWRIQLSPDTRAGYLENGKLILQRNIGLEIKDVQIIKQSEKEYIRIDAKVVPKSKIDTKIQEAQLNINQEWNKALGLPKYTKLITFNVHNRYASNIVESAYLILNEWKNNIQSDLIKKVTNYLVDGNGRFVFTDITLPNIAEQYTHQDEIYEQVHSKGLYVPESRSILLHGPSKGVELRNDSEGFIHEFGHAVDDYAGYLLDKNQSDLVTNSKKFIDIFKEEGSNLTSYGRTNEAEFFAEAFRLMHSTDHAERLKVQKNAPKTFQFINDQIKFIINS

[10] = Volume of distribution in New Zealand White rabbit at 5 mg/kg, iv; assay type: ADME, organism-based, Oryctolagus cuniculus; parameters: dose 5 mg/kg, route intravenous; settings: in vivo, read-out: Vdss
[11] = Clearance in Guinea pig at 2 mg/kg, iv; assay type: ADME, organism-based, Cavia porcellus; parameters: dose 2 mg/kg, route intravenous; settings: in vivo
[12] = Volume of distribution in BALB/c mice at 10 mg/kg, iv; assay type: ADME, organism-based; parameters: dose 10 mg/kg, route intravenous; settings: mouse, in vivo, read-out: Vdss
[13] = target: T2, Endothelin-converting enzyme 1 (Homo sapiens) (UniProt P42892); assay: Inhibition of ECE at 10 uM
T2 sequence (whole entry): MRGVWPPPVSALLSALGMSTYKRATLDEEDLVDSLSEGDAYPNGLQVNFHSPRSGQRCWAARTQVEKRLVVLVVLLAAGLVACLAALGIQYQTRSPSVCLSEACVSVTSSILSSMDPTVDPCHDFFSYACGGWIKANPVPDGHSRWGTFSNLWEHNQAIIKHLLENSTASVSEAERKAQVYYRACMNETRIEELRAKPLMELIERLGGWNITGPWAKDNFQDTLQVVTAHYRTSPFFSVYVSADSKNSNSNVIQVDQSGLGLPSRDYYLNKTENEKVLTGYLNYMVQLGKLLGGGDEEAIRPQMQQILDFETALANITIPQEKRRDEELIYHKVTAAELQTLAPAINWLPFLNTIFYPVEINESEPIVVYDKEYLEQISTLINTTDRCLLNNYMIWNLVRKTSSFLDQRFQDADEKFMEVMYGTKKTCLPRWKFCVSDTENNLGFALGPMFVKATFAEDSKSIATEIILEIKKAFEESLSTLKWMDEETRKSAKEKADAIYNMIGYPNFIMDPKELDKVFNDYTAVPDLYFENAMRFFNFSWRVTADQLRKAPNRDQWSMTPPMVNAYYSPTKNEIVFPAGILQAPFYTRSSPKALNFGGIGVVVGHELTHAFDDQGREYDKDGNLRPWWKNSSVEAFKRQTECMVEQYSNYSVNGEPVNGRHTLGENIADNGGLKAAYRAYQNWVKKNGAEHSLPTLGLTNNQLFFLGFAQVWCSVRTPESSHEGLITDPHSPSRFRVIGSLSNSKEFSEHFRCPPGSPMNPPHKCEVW

[14] = Volume of distribution in Beagle dog at 1 mg/kg, iv; assay type: ADME, organism-based, Canis lupus familiaris; parameters: dose 1 mg/kg, route intravenous; settings: in vivo, read-out: Vdss
[15] = Half life in New Zealand White rabbit at 5 mg/kg, iv; assay type: ADME, organism-based, Oryctolagus cuniculus; parameters: dose 5 mg/kg, route intravenous; settings: in vivo
[16] = target: Disintegrin and metalloproteinase domain-containing protein 17 (Homo sapiens, UniProt P78536); assay: Inhibition of TACE
[17] = Bioavailability in Sprague-Dawley rat […], po; assay type: ADME, organism-based; settings: in vivo
[18] = Volume of distribution in Sprague-Dawley rat at 1 mg/kg, iv; assay type: ADME, organism-based; parameters: dose 1 mg/kg, route intravenous; settings: in vivo, read-out: Vdss
[19] = Tmax in Sprague-Dawley rat at 1 mg/kg, iv; assay type: ADME, organism-based; parameters: dose 1 mg/kg, route intravenous; settings: in vivo
Interstitial collagenase = target: T3, Interstitial collagenase (Homo sapiens, UniProt P03956); assay: Inhibition of MMP1
T3 sequence (P03956 whole entry): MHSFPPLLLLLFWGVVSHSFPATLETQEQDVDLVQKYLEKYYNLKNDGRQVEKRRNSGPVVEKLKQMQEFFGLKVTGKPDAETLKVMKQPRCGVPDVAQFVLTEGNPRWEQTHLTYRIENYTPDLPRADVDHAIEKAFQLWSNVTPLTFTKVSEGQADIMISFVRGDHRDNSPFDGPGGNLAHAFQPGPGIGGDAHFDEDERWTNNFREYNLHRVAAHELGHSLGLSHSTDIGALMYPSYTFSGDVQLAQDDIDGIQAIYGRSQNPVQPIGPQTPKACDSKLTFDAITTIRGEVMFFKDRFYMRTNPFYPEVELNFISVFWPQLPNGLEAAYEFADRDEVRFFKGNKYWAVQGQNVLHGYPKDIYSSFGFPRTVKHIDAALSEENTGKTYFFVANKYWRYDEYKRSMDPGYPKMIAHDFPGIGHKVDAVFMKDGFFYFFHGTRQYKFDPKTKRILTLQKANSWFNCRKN

[20] = Tmax in BALB/c mice at 10 mg/kg, iv; assay type: ADME, organism-based; parameters: dose 10 mg/kg, route intravenous; settings: mouse, in vivo
[21] = Bioavailability in Dutch Belted rabbit […], po; assay type: ADME, organism-based, Oryctolagus cuniculus; settings: in vivo
[22] = Clearance in BALB/c mice at 10 mg/kg, iv; assay type: ADME, organism-based; parameters: dose 10 mg/kg, route intravenous; settings: mouse, in vivo
[23] = Cmax in Dutch Belted rabbit at 2 mg/kg, iv; assay type: ADME, organism-based, Oryctolagus cuniculus; parameters: dose 2 mg/kg, route intravenous; settings: in vivo
Lethal factor [24] = target: T1, Lethal factor; assay: Inhibition of LF; settings: read-out: IC50

Chain of Stromelysin-1 (P08254 whole entry): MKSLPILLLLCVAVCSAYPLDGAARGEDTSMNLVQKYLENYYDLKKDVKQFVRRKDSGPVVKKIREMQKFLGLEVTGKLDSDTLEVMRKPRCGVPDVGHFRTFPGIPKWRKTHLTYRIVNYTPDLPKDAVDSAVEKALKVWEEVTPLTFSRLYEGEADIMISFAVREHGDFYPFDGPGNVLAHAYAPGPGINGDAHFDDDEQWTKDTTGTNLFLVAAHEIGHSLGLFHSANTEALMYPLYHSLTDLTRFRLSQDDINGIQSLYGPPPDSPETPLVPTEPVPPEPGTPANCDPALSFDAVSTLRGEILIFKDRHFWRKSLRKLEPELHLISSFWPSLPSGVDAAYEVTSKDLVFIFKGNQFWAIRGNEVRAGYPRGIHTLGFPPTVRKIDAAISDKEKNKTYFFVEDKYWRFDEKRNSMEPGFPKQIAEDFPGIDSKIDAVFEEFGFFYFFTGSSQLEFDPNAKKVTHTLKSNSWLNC
Chain of Disintegrin and metalloproteinase domain-containing protein 17 (P78536 whole entry, the tested form may be a part): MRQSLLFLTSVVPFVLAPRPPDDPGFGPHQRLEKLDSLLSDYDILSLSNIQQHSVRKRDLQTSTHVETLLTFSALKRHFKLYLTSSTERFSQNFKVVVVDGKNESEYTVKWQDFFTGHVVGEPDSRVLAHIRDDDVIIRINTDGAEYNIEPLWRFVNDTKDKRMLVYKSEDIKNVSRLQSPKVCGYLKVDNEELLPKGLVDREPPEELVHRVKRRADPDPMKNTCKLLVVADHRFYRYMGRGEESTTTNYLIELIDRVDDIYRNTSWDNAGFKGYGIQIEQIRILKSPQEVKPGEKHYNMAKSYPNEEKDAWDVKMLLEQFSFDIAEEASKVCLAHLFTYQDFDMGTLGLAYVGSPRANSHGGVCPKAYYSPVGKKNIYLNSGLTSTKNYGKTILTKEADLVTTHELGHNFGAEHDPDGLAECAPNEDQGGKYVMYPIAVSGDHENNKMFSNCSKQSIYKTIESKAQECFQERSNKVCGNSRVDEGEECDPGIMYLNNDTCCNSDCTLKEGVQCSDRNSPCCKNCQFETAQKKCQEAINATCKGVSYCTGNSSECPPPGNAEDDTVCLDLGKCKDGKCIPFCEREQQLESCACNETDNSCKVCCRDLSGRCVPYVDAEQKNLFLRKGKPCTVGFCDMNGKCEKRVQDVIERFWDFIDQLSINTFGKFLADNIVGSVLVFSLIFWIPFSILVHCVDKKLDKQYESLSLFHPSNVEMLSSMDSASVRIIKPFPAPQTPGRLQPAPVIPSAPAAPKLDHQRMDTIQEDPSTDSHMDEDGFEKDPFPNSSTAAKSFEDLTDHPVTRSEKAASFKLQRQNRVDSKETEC
Chain of 72 kDa type IV collagenase (P08253 whole entry): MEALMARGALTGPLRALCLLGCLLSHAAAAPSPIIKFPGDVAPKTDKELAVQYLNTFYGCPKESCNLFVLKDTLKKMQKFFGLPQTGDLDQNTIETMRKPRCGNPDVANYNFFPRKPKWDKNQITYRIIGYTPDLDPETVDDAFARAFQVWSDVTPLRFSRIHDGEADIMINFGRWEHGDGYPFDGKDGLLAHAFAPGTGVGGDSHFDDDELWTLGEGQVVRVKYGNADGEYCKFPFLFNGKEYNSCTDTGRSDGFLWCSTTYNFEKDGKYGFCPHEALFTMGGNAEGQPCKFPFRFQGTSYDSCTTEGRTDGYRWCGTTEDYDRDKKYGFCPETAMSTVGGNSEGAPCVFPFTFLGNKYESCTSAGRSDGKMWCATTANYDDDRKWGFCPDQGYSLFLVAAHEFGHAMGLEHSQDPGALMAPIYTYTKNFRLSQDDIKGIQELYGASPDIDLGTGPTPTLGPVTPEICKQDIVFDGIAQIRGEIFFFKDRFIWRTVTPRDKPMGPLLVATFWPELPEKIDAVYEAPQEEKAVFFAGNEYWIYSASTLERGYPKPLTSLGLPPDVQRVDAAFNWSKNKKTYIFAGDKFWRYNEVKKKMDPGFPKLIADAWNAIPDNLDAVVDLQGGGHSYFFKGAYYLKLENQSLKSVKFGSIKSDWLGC
Chain of Matrix metalloproteinase-9 (P14780 whole entry): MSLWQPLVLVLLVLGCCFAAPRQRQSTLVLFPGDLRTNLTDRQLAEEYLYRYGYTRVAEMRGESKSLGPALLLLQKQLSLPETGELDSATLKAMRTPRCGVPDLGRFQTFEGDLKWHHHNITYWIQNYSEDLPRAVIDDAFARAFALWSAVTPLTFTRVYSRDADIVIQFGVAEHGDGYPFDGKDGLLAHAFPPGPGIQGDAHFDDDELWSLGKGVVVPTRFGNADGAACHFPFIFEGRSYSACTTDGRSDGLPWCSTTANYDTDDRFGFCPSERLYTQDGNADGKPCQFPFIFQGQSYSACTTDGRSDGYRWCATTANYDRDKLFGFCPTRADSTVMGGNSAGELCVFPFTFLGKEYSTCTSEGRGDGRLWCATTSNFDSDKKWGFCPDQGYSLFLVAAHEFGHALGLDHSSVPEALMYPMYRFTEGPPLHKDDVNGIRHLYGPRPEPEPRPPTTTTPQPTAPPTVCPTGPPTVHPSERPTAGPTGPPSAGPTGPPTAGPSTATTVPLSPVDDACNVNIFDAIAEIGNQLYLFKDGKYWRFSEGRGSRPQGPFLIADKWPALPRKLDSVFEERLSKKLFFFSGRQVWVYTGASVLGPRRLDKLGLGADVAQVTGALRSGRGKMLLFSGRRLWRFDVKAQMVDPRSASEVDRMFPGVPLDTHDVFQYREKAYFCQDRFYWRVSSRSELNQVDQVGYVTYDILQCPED

For `Cc1cc(S(=O)(=O)N[C@@H](C(=O)NO)C2CCOCC2)ccc1F`, the IC50 [1] was 2000 nM, the Cmax [2] was 250 nM and the bioavailability [3] was 71%. It also gave a Cmax [4] of 240 nM, an IC50 [5] of 2000 nM and an IC50 (Stromelysin-1) of 1400 nM. For the same molecule, the bioavailability [6] was 22%, the half-life [7] was 24 min and the bioavailability [8] was 57%. The IC50 (Lethal factor [9]) was 54 nM, the Vd [10] was 3.8 L/kg and the clearance [11] was 24 mL/min/kg. It also gave a Vd [12] of 1 L/kg, an inhibition [13] of under 10% and a Vd [14] of 2.4 L/kg. For the same molecule, the half-life [15] was 150 min, the IC50 [16] was 4300 nM and the bioavailability [17] was 51%. The Vd [18] was 3.9 L/kg, the Tmax [19] was 18 min and the IC50 (Interstitial collagenase) was 2200 nM. For the same molecule, the Tmax [20] was 18 min, the bioavailability [21] was 0.5% and the clearance [22] was 72 mL/min/kg. For the same molecule, the Cmax [23] was 12 nM and the IC50 (Lethal factor [24]) was 54 nM.
